Activity calls are given as the source filed them.
Tests used:
[1] = target: Mothers against decapentaplegic homolog 3 (Homo sapiens, UniProt P84022); experiment: Smad3 binding inhibitors, lysate ELISA, dose response, cell lysate, secondary confirmation, chemiluminescent ELISA, HEK293 lysate (AID 1058); assay type: functional
Streptococcus [2] = experiment: Group A Streptococcus viability loss, dose response, counter-screen for streptokinase expression inhibitor project, luminescence, BacTiterGlo (AID 1915); assay type: functional, organism-based;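 further: potency for reduction of bacterial viability or growth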
Streptokinase A = target: T1, Streptokinase A (Streptococcus pyogenes serotype M1, UniProt P10520); experiment: S. pyogenes streptokinase expression inhibitors, potency, dose response, plasminogen activation absorbance, OD405 (AID 1914); assay type: functional, Streptococcus pyogenes M1 GAS;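 further: secreted streptokinase activity via plasminogen activation per viability signal from cell pellet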
T1 sequence (P10520 whole entry): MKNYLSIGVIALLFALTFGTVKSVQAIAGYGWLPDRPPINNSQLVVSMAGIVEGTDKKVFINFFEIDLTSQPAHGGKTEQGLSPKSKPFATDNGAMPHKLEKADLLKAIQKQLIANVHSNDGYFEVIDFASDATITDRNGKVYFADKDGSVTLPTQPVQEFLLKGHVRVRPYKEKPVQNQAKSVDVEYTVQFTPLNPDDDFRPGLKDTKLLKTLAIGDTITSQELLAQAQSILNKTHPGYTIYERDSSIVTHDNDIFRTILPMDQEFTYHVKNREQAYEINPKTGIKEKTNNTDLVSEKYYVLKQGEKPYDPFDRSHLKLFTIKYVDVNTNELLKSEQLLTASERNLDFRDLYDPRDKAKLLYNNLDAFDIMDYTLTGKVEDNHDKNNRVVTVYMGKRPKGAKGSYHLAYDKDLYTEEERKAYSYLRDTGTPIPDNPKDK

Streptococcus [3] = experiment: Luminescence Microorganism-Based Dose Response Follow up to Identify Compounds Cytotoxic to Streptococcus. [Related pubchem assays: 1677 (Project Summary), 1915, 1914, 1902 (Retest at Dose), 1900 (Counter Screen), 1662 (Primary HTS)]; assay type: functional, organism-based
[4] = tested on: Streptococcus sp. 'group A'; experiment: growth inhibition of control SK(-) GAS strain, dose response, counter-screen for streptokinase expression inhibitor project, luminescence, kanamycin, BacTiterGlo, confirmation (AID 1900); assay type: functional, organism-based
Estrogen receptor = target: T2, Estrogen receptor (Homo sapiens, UniProt P03372); experiment: ERα–SRC-3 coactivator interaction inhibitors, confirmation, orthogonal assay, biochemical, ELISA, streptavidin-HRP readout (AID 1079)
T2 sequence (P03372 whole entry): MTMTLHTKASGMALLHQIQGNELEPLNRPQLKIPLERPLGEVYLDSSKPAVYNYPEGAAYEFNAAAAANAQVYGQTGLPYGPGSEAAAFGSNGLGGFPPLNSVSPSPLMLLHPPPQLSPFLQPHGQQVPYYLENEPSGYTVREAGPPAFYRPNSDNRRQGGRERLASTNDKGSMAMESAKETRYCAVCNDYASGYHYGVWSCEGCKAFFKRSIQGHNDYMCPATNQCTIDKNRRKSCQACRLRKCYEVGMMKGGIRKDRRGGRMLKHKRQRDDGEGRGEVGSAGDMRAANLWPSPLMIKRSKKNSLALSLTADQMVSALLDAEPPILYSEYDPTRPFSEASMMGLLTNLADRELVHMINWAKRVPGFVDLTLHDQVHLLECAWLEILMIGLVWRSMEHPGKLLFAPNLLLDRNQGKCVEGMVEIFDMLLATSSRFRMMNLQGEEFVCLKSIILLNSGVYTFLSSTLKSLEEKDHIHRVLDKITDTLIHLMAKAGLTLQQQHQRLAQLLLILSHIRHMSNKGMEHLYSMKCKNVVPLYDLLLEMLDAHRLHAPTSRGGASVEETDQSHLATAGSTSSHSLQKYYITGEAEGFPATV

[5] = HepG2 cell cytotoxicity, dose response, cytotoxicity control for Shn3 inhibitor project, CellTiter-Glo, cherry-picked (AID 624134); assay type: functional, cell-based
[6] = inhibitors of firefly luciferase expression or activity, dose response, H4 neuroglioma cells, luminescence (AID 1990); assay type: functional, cell-based
[7] = Shn3 3'UTR reporter inhibitors, dose response, cell-based, Clone20 osteoblasts, firefly luciferase, cherry-picked (AID 624132); assay type: functional;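 further: firefly luciferase luminescence from reporter carrying the Shn3 3'UTR in osteoblasts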
[8] = Luminescence Cell-Based Dose Response HTS to Identify Inhibitors of 5'UTR Stem-Loop Driven Prion Protein mRNA Translation in H4 Neuroglioblastoma Cells. [Related pubchem assays: 1827 (Project Summary), 1813 (Primary HTS)]; assay type: functional
[9] = target: Luciferin 4-monooxygenase (Photinus pyralis, UniProt P08659); experiment: Counter Screen for Luciferase-based Assay Positives. [Related pubchem assays: 620, 618, 411 ]
Chain of Luciferin 4-monooxygenase (P08659 whole entry): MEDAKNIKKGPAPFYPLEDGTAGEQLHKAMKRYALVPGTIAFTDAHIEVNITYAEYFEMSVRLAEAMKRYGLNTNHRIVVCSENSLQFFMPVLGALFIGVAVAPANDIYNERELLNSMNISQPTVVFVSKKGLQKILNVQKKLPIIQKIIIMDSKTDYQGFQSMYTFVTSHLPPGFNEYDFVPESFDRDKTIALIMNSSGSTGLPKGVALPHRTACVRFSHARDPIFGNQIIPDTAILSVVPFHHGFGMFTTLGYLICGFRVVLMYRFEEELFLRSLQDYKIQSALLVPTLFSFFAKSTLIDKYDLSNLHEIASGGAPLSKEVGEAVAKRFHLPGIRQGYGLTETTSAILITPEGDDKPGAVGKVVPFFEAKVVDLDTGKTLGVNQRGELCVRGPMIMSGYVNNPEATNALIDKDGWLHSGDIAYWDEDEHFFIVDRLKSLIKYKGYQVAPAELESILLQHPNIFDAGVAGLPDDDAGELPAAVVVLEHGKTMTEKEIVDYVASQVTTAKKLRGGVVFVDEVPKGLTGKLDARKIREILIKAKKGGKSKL

[10] = target: Sphingosine 1-phosphate receptor 4 (Homo sapiens, UniProt O95977); experiment: Fluorescence dose response cell-based high throughput screening assay for antagonists of the Sphingosine 1-Phosphate Receptor 4 (S1P4). [Related pubchem assays: 1524 (Confirmation in triplicates.), 1510 (Primary screen.)]; assay type: functional
Chain of Sphingosine 1-phosphate receptor 4 (O95977 whole entry): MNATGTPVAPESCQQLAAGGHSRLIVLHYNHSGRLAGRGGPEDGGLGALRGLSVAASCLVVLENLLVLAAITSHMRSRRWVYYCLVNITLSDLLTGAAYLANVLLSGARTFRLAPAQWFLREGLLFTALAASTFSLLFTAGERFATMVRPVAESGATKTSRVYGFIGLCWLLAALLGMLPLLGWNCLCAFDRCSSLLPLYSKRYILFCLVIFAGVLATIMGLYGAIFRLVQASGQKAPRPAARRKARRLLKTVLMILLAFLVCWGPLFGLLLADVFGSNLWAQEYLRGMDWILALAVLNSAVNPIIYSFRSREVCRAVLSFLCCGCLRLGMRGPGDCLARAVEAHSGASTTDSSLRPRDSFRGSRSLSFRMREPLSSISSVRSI

HT-1080 = experiment: cytotoxicity in HT1080 fibrosarcoma cells, cell-based, fluorescence readout (AID 620); assay type: functional; conditions: Homo sapiens
Protein RecA = target: T3, Protein RecA (Mycobacterium tuberculosis, UniProt P9WHJ3); experiment: Fluorescence Cell-Free Homogeneous Dose Retest to Identify Inhibitors of RecA-Intein Splicing Activity. [Related pubchem assays (depositor defined):AID2097, AID2223, AID489010, AID492950]; assay type: functional
T3 sequence (P9WHJ3 whole entry): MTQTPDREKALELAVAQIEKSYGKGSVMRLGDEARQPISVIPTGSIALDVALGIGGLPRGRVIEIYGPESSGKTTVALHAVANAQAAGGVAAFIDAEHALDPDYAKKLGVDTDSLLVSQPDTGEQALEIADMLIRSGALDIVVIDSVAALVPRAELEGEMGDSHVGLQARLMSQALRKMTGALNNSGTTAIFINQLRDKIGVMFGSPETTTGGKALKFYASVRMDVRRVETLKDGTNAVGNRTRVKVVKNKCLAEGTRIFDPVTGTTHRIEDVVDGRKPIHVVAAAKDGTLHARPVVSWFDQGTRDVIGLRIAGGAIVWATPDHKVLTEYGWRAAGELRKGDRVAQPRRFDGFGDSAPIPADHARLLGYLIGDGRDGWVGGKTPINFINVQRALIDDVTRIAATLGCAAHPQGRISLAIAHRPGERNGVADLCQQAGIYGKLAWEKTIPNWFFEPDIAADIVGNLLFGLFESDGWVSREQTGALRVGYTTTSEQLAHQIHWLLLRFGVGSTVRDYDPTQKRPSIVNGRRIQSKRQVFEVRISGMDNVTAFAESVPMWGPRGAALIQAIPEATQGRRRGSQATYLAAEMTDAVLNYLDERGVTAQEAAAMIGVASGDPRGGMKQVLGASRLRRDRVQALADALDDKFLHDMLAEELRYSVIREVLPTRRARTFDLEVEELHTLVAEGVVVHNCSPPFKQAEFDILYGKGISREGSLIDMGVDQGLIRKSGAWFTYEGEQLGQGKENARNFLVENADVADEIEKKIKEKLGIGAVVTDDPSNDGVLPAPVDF

[11] = target: Sphingosine 1-phosphate receptor 1 (Homo sapiens, UniProt P21453); assay type: functional;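 further: Tango beta-arrestin reporter U2OS cells stimulated with S1P near its EC80; inhibitor potency meaning antagonism of receptor activation by the natural agonist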
Chain of Sphingosine 1-phosphate receptor 1 (P21453 whole entry): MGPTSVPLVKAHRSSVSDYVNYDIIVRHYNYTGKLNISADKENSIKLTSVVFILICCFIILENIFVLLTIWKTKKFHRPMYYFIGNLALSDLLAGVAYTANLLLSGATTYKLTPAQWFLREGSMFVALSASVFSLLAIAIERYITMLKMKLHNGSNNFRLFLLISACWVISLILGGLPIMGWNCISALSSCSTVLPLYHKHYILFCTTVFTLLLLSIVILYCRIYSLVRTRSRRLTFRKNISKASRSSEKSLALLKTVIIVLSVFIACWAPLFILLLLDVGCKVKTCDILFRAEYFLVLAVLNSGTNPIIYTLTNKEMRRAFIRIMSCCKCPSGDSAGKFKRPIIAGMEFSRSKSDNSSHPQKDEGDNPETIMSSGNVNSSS

[12] = control 3'UTR Renilla luciferase suppression, dose response, counter-screen for Shn3 inhibitor project, cell-based, Clone20-Shn3RL, cherry-picked (AID 624133); assay type: functional
[13] = microbe, parasite or virus in culture; assay type: functional; conditions: Mycobacterium tuberculosis
[14] = inhibitors of SNCA 5'UTR-driven reporter translation, confirmation, H4 neuroglioma cells, luminescence (AID 1988); assay type: functional, cell-based
[15] = target: T4, High affinity choline transporter 1 (Homo sapiens, UniProt Q9GZV3); experiment: CHT inhibitors, dose response, cell-based, 10-point CRC, membrane potential dye (AID 588401); assay type: functional;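 further: membrane potential dye fluorescence of choline-evoked depolarization via CHT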
T4 sequence (Q9GZV3 whole entry): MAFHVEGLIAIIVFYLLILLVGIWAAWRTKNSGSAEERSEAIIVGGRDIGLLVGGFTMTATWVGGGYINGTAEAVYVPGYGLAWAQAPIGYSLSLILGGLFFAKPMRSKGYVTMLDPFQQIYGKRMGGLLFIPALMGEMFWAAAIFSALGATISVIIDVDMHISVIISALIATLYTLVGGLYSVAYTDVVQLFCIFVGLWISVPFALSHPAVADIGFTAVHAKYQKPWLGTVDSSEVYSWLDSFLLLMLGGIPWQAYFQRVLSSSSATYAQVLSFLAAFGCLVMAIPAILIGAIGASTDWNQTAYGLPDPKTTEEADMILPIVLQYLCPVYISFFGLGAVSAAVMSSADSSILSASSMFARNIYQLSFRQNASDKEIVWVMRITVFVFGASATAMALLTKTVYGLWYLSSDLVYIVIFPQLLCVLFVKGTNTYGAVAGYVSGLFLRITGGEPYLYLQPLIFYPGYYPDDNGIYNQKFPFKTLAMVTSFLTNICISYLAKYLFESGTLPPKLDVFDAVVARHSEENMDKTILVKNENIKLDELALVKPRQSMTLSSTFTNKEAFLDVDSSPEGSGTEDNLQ

[16] = target: T4, High affinity choline transporter 1; experiment: CHT inhibitors, dose response, cell-based, 5-point CRC, membrane potential dye (AID 504840); assay type: functional
[17] = target: T5, Heat shock factor protein 1 (Mus musculus, UniProt P38532); experiment: inhibition of MG132-induced HSE-luciferase signal, confirmation, cell-based, NIH3T3, luminescence, dose retest (AID 2382); assay type: functional;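 further: NIH3T3 fibroblasts with HSF1-driven luciferase reporter stressed by proteasome inhibitor MG132; luminescence from HSF1-driven luciferase expression after 8 hours of MG132 stress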
T5 sequence (P38532 whole entry): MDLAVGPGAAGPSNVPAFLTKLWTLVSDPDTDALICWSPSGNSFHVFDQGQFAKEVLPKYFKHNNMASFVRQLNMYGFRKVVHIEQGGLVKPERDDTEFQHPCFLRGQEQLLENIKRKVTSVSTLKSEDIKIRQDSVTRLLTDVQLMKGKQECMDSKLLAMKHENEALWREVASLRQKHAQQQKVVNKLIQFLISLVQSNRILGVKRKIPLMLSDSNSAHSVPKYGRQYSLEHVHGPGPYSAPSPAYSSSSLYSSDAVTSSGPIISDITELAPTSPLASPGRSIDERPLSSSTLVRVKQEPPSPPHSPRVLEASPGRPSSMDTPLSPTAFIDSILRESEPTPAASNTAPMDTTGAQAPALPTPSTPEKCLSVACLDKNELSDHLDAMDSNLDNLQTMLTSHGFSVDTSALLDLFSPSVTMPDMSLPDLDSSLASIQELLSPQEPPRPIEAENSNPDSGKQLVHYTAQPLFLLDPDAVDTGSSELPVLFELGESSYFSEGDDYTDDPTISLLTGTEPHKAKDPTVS

CHO = experiment: cytotoxicity in TLR9-MyD88 CHO cells, dose response, cytotoxicity control for TLR9-MyD88 binding inhibitor project, cell-based, luminescence (AID 588339); assay type: functional, hamster; conditions: Cricetulus griseus;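 further: CHO cells stably coexpressing TLR9 and MyD88 fusions from primary screen; compound exposure lasted 48 hours before viability readout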
[18] = target: G2/mitotic-specific cyclin-B1 (Homo sapiens, UniProt P14635); experiment: Counterscreen assay for inhibitors of Wee1 degradation: dose response cell-based assay to identify inhibitors of cyclin B degradation. [Related pubchem assays: 1410, 1321 ]; assay type: functional
Chain of G2/mitotic-specific cyclin-B1 (P14635 whole entry): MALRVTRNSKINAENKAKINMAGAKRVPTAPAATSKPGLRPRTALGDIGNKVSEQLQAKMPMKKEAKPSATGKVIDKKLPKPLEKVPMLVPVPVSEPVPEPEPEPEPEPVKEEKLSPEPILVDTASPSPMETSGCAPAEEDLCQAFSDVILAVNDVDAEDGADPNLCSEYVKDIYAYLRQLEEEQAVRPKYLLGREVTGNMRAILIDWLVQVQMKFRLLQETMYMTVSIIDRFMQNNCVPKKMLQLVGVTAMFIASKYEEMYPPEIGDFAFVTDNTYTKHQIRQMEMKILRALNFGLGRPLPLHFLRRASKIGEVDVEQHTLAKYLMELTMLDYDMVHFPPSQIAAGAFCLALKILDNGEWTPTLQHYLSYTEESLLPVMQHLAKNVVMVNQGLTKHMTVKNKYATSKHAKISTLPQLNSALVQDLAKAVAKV

Wee1-like protein kinase = Wee1-like protein kinase (Homo sapiens, UniProt P30291); experiment: Dose Response Cell-based Assay for Inhibitors of Wee1 Degradation. [Related pubchem assays: 1410, 1321 ]; assay type: functional
Chain of Wee1-like protein kinase (P30291 whole entry): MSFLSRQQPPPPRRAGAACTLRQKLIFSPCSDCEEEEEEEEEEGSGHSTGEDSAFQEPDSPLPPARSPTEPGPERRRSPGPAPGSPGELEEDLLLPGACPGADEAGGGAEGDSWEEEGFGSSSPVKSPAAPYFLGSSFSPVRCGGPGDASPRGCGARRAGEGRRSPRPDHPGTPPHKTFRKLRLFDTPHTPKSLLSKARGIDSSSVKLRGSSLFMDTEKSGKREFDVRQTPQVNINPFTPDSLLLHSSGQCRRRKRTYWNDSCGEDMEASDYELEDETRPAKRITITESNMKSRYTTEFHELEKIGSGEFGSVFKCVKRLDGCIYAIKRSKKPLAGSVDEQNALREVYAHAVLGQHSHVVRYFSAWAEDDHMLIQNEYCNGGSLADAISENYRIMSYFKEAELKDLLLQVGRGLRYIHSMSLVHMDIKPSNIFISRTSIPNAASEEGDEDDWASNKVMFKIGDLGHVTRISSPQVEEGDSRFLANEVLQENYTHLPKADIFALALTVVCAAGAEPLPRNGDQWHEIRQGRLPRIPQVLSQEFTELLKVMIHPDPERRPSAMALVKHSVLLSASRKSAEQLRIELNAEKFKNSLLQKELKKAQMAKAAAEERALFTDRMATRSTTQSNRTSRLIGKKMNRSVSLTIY

Phospholipase A2 = Phospholipase A2 (Homo sapiens, UniProt P04054); assay type: functional;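 further: confirmatory dose-response counterscreen on phospholipase A2, testing hits that came from an ultra-high-throughput screen for ATG4B inhibitors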
Chain of Phospholipase A2 (P04054 whole entry): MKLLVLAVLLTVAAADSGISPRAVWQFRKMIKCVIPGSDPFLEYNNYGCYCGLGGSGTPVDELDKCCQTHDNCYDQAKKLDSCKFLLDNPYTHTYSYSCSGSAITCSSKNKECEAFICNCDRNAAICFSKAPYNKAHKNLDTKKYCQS

[19] = A cytotoxicity screen of small molecule inhibitors of the PhoP region in Salmonella typhi identified in the primary screen. [Related pubchem assays: 1850, 1864, 1985 ]; assay type: functional
Cysteine protease ATG4B = Cysteine protease ATG4B (Homo sapiens, UniProt Q9Y4P1); assay type: functional;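 further: Fluorescence-based dose-response confirmation assay measuring inhibition of ATG4B activity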
Chain of Cysteine protease ATG4B (Q9Y4P1 whole entry): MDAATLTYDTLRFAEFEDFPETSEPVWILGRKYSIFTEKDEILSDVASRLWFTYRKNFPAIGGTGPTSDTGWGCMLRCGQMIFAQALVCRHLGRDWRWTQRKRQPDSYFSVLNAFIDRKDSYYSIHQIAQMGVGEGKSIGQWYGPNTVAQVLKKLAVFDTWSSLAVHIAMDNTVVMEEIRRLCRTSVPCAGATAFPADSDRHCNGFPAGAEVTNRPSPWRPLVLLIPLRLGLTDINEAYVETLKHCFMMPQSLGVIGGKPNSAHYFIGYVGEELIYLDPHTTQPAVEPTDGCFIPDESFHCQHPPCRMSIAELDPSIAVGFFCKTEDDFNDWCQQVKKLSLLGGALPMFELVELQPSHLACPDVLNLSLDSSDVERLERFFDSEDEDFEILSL

cells [20] = assay type: functional, cell-based
[21] = luciferase reporter signal reduction – luminescence, H4-C neuroglioblastoma cells, dose response (AID 2458); assay type: functional, cell-based;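 further: H4 neuroglioblastoma cells stably carrying a luciferase reporter gene fusion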
[22] = inhibitors of SNCA 5'UTR-driven translation, confirmation, luminescence, H4 neuroglioblastoma cells, dose confirmation (AID 2454); assay type: functional, cell-based;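 further: H4 neuroglioblastoma cells carrying an alpha-synuclein 5'UTR luciferase reporter; potency for inhibition of the luciferase signal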
[23] = HeLa 4N DNA content increase, dose response, cell-based, IC50 (AID 1117351); assay type: functional
[24] = HeLa 2N DNA content increase, dose response, cell-based, IC50 (AID 1117349); assay type: functional
cells [25] = assay type: functional, cell-based; remark: listed apart in the source

Chain of Mothers against decapentaplegic homolog 3 (P84022 whole entry): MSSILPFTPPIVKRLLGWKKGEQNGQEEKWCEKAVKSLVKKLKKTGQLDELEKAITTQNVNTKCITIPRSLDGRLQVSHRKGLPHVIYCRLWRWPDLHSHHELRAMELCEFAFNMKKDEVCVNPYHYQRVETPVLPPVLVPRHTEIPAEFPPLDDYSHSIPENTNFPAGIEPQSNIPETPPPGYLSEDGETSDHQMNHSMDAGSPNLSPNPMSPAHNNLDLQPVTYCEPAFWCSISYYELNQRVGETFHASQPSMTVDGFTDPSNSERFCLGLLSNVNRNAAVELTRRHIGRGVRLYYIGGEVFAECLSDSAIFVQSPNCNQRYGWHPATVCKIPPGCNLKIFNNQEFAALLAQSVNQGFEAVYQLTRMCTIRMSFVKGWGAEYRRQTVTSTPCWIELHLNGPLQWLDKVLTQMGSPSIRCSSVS

Oc1ccccc1C(c1cc2c(cc1O)OCO2)N1CCOCC1 (stereo not given)
IC50 [1]: 6.96 µM (not active)

Cc1cc(C(=O)OC(C(=O)Nc2cccc(C(F)(F)F)c2)c2ccccc2)c(C)o1 (stereo not given)
EC50 (Streptococcus [2]): > 150 µM (not active) | EC50 (Streptokinase A): 4.11 µM (active) | EC50 (Streptococcus [3]): > 500 µM (not active) | EC50 [4]: 22.6 µM (active)

O=C(CCCCCn1c(=S)[nH]c2ccccc2c1=O)N1CCC(Nc2ccccc2)CC1
IC50 (Estrogen receptor): 0.18 µM (not active)

CN1/C(=C/C(=O)c2nc(S(C)(=O)=O)ncc2Cl)C(C)(C)c2ccccc21
AC50 [5]: 12.2 µM (active) | EC50 [6]: > 120 µM (not active) | AC50 [7]: 5.21 µM (active) | EC50 [8]: 10.1 µM (active) | EC50 [9]: 1.14 µM (active) | IC50 [10]: 1.31 µM (active) | EC50 (HT-1080): 17.8 µM (active) | EC50 (Protein RecA): 1.81 µM (active) | IC50 [11]: 11.9 µM (not active) | AC50 [12]: 8.57 µM (active) | CC50 [13]: 19.5 µM (active) | EC50 [14]: 9.18 µM (active) | IC50 [15]: 3.81 µM (active) | IC50 [16]: 4.81 µM (active) | EC50 [17]: 4.37 µM (active) | IC50 (CHO): 2.72 µM (active)

Cn1cccc1/C=C1\SC(Nc2ccccc2)=NC1=O
EC50 [18]: > 5.53 µM (active) | EC50 (Wee1-like protein kinase): > 49.7 µM (not active)

O=c1c2ccccc2nc(-c2ccoc2)n1CCc1ccccc1
IC50 (Phospholipase A2): 13.9 µM (active) | EC50 [19]: > 50 µM (active) | IC50 (Cysteine protease ATG4B): 14.3 µM (active)

COC(=O)Nc1nc2cc(C(=O)c3cccs3)ccc2[nH]1 [NOCODAZOLE]
IC50 (cells [20]): > 67.5 µM (inactive) | EC50 [21]: 0.195 µM (active) | EC50 [22]: 0.183 µM (active) | EC50 [8]: < 0.1 µM (active) | IC50 [23]: 0.0176 µM (active) | IC50 [24]: 0.0174 µM (active) | EC50 [14]: < 0.1 µM (active) | EC50 (cells [25]): 0.203 µM (active)

From ChEMBL document CHEMBL1201862, “PubChem BioAssay data set” (2004)
